Activity calls are given as the source filed them. The rule behind the calls is not given here.

Assay [1] concerns HL-60. Description: Growth inhibition of human HL60 cells after 96 hrs. It counts as functional, cell-based.
Assay [2] deals with HL-60. Description: Effect on PMA-stimulated human HL60 cells assessed as recovery of ROS metabolism. The format is functional, cell-based.
For assay [3], the system named is HL-60. Description: Effect on zymosan-stimulated human HL60 cells assessed as recovery of ROS metabolism. The format is functional, cell-based.
Assay [4] is filed under the species Mus musculus. Description: Inhibition of p210Bcr-Abl phosphorylation in gleevec-sensitive mouse 32D cells at 10 uM.
Assay [5] has as its system HL-60. Nature of the assay: Growth inhibition of human HL60 cells upto 100 uM after 96 hrs. The format is functional, cell-based.
Assay [6] is filed under the species Mus musculus. Nature of the assay: Inhibition of p210Bcr-Abl phosphorylation in gleevec-resistant mouse 32D cells at 10 uM.
The nature of assay [7]: Reduction of clonogenic activity in Bcr-Abl expressing mouse 32D clone cells. The conditions noted are these: read-out: LD50.
The target of assay [8] is Proto-oncogene tyrosine-protein kinase Src (Homo sapiens) (UniProt P12931). Description: Inhibition of recombinant human c-Src.
Sequence of Proto-oncogene tyrosine-protein kinase Src (Homo sapiens) (P12931 2-536 limits assumed): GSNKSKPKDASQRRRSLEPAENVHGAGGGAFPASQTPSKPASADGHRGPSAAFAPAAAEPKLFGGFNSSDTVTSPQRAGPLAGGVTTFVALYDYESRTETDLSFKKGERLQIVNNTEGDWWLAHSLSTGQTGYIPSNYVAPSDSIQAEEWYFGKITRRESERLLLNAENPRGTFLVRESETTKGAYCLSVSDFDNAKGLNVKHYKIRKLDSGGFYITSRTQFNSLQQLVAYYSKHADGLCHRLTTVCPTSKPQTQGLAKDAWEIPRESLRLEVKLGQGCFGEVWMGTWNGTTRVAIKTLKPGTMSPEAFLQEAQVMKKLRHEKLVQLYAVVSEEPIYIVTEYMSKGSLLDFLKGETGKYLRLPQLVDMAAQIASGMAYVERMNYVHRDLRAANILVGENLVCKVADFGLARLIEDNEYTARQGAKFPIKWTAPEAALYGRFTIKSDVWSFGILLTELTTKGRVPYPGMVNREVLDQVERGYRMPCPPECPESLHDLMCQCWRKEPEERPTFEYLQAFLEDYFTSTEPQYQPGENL

For the molecule `O=C(Nc1nnc(SCc2ccc(F)cc2)s1)c1ccc(F)cc1`, the result in assay [1], in assay [2], in assay [3], in assay [4] and in assay [6] was Active. Also, the outcome in assay [5] was inactive. Also, the CC50 in assay [7] was found to be 2200 nM.

For the molecule `O=C(Nc1nnc(CCc2ccccc2)s1)c1ccc(I)cc1`, in assay [8], the result was inactive.
